# Data as given in ChEMBL document CHEMBL5576079, “Discovery of a potent orally available pyrazolopyridone derivative as a novel selective bromodomain and extra-terminal domain (BET)-first bromodomain (BD1) inhibitor” (Bioorg Med Chem Lett, 2024).
# Active and inactive are the calls of the source. No cut-off for these calls is given here.
# Tests used:
# [1] = Drug concentration in LPS induced mouse plasma at 10 mg/kg measured after 2 hrs; format: ADME, organism-based
# [2] = test system: Monocyte; experiment: Inhibition of LPS-induced MCP-1 production in mouse Monocyte
# [3] = test system: Mus musculus; experiment: Anti-inflammatory activity in endotoxemia mouse model assessed as suppression of LPS-induced serum IL-6 level at 10 mg/kg, po preincubated for 30 mins followed by LPS stimulation and measured after 90 mins; format: functional, organism-based; settings: time 120.0 min
# [4] = test system: Mus musculus; experiment: Anti-inflammatory activity in endotoxemia mouse model assessed as suppression of LPS-induced serum MCP-1 level at 10 mg/kg, po preincubated for 30 mins followed by LPS stimulation and measured after 90 mins; format: functional, organism-based; settings: time 120.0 min
# [5] = Drug concentration in LPS induced mouse plasma at 100 mg/kg measured after 2 hrs; format: ADME, organism-based
SMILES,concentration at 2 h [1],IC50 [2],Activity [3],Activity [4],concentration at 2 h [5]
Cc1csc(-c2cn(C)c(=O)c3cn(CC4CC(C(=O)NC5CCCCC5)CCN(C)C4)nc23)n1 (stereo unspecified),0.0391 µg/mL,1 nM,Active,Active,0.707 µg/mL
Cc1sc2c(c1C)C(c1ccc(Cl)cc1)=N[C@@H](CC(=O)OC(C)(C)C)c1nnc(C)n1-2,,2 nM,,,
